Experimental data from US10117899B2, “Delivery methods and compositions for nuclease-mediated genome engineering in hematopoietic stem cells” (Sangamo BioSciences, Inc., priority 2013, dated 2018).

Assays:
NSG mice = assay: Transplantation of gene targeted CD34+ cells in NSG mice, engraftment of human CD45+ and GFP+ cells; format: in vivo; details: for effect on in vivo differentiation of treated cells: addition to the in vitro culture, PB 14 weeks post-transplant; for fraction of mice successfully engrafted with GFP+ cells: delayed treatment and addition of SR1 and dmPGE2 used in combination
Source text: For the in vivo studies, 8- to 11-week-old NOD-SCID-IL2Rg^−/− (NSG) mice were purchased from the Jackson laboratory. The experimental protocol was approved by the Institutional Animal Care and Use Committee of the San Raffaele Scientific Institute. At day 4 of culture, 3×10^5 gene targeted CD34+ cells (or 7.5×10^5 BM derived cells) were infused intravenously into the mice after sub-lethal irradiation (200 cGy).MDA3 human mammary carcinoma cell line was obtained by stable transduction of MDA-MB 231 cells with lentiviral vectors expressing the human cytokines GMCSF, IL-7 and IL-15 from the PGK promoter. 4×10^6MDA3 cells were implanted orthotopically in the mammary fat pad of NSG mice 14 weeks after CD34+ cells transplantation or in age-matched untransplanted NSG mice. Human CD45+ engraftment was followed by serial collections of blood from the mouse tail and, at the end of the experiment (12-23 weeks after transplantation), BM, spleen and thymus cells were harvested and analyzed. HumanT lymphocytes were enriched from mouse splenocytes using magnetic beads conjugated to anti human CD3 and CD28 antibodies (Dynabeads human T-activator CD3/CD28; Invitrogen), following the manufacturer instructions, and grown in Iscove's Modified Dulbecco's Media (IMDM) (GIBCO-BRL) supplemented with penicillin, streptomycin, 10% FBS and 5 ng/ml each of IL-7 and IL-15 (PeproTech).

CD34+ cells = assay: Gene targeting of CD34+ cell subpopulations in culture supplemented with SR1 and/or dmPGE2; format: cell-based, human
Description: CD34+ cells were either freshly purified from human cord blood after obtaining informed consent and upon approval by the San Raffaele Hospital Bioethical Committee, or purchased frozen from Lonza. 10^6 CD34+ cells/ml were stimulated in serum-free StemSpan medium (StemCell Technologies) supplemented with penicillin, streptomycin and human early-acting cytokines (stem cell factor (SCF) 100 ng/ml, Flt3 ligand (Flt3-L) 100 ng/ml, thrombopoietin (TPO) 20 ng/ml, and interleukin 6 (IL-6) 20 ng/ml; all purchased from Peprotech) for 24 or 48 hr and then infected with IDLVs at multiplicity of infection (MOI) 100-500. The following day the cells were electroporated with 175 μg/ml ZFNs encoding mRNAs (P3 Primary Cell 4D-Nucleofector X Kit, program EO 100; Lonza). For some experiments, the following drugs were supplemented to the culture media: 1 μM SR1 (Novartis) added at every medium change, and 10 μM PGE2 (Cayman) added at the beginning of the culture, 1 hour before and just after electroporation. For CFC assays, 800 cells were plated one day after electroporation in methylcellulose-based medium (MethoCult H4434, StemCell Technologies). Two weeks after plating, colonies were counted and identified according to morphological criteria.
Because cell cycle progression is a major requirement of HDR, and activation of the more primitive progenitors may require longer stimulation, we postponed the gene targeting procedure to the third day of culture (FIG. 3C). At this time, the cells are also likely to become more permissive to LV transduction. However, since increasing times of culture lead to increased differentiation, we also tested addition of the Aryl Hydrocarbon Receptor Antagonist (StemRegenin 1, SR1) and/or 16.16 dimethyl-prostaglandin E2 (dmPGE2) to the culture medium to promote progenitor expansion in conditions that have been reported to preserve the stemness of these cells (FIG. 3D).

[1] = 1 μM SR1 added to culture medium

## CCCCC(C)(C)[C@H](O)/C=C/[C@H]1[C@H](O)CC(=O)[C@@H]1C/C=C\CCCC(=O)O [dmPGE2, 16.16 dimethyl-prostaglandin E2]
NSG mice
  effect on in vivo differentiation of treated cells: did not significantly affect
  fraction of mice successfully engrafted with GFP+ cells: 100%
CD34+ cells
  apoptotic rate of cells treated with or without dmPGE2: did not observe significant differences
CD34+ cells; dmPGE2 added to culture, additive effects with SR1
  effect on percentage of GFP+ cells in all subpopulations: further increased

## CC(C)n1cnc2c(NCCc3ccc(O)cc3)nc(-c3csc4ccccc34)nc21 [SR1, StemRegenin 1]
NSG mice
  effect on in vivo differentiation of treated cells: did not significantly affect
  fraction of mice successfully engrafted with GFP+ cells: 100%
NSG mice; after SR1 addition to the culture
  total human cell engraftment in the mice: significantly increased
CD34+ cells; [1]
  effect on overall yield of GFP+ CFC and early (CD133+) progenitors: increased
  effect on percentage of GFP+ cells within each subpopulation: slightly reduced
CD34+ cells; SR1 treatment
  effect on targeting efficiency: did not significantly influence
  effect on the more primitive fractions in culture: helped maintain the more primitive fractions in culture
